Results published in patent US11109819B2, “System and method for quantitatively mapping mitochondrial membrane potential” (The General Hospital Corporation, priority 2016, dated 2021).
Entries after “also recorded” stand apart in the source; their conditions may differ.

Experiments:
[1] = mouse tissues; FIGS. 1-5 of US 2013/0064768 A1; cited from earlier work
[2] = in vivo; cited from earlier work
[3] = Comparison of myocardial kinetics of TPP+ and Flurpiridaz (FIG. 4); assay type: in vivo
From the text: FIG. 4 is a graphical illustration depicting comparison of myocardial kinetics of TPP^| and Flurpiridaz. The black line (the top line) depicts Flurpiridaz kinetics; whereas, the red line (the bottom line) depicts TPP^+ kinetics. Concentrations are normalized to remove the effect of injected radioactivity dose.
To provide a direct observation Applicants compared the kinetics of ^18F-TPP^+ to those of ^18F-Flurppiridaz, a tracer with high first pass capillary extraction (E>0.9). […] Thus it is unlikely that TPP^+ can provide useful myocardial flow measurements, per se.

[4] = Dynamic PET/CT with Logan plot, parametric map of 18F-TPP+ volume of distribution Vd; assay type: in vivo, domestic swine; settings: pig with experimental tissue injury in LAD territory, FIG. 8
Description: The study cohort consisted of n=9 domestic swine which were divided into two groups, control (n=6) and tissue injury (scar) (n=3). […] Pigs were housed and maintained under the supervision of the Massachusetts General Hospital Animal Care and Use Committee. Studies were conducted serially, one pig at a time, from August 2014 till October 2015. The weight of the pigs at scan averaged 53.1 kg with a range from 30-92 kg.
Pigs were fasted 12 hours prior to induction of anesthesia, sedated with 4.4 mg/kg Telazol, placed on 5% masked isoflurane, intubated, maintained with 1.5% isoflurane and mechanically ventilated. Vital signs were monitored continuously. Vascular access was obtained via the femoral veins for injection of PET radiotracer and iodinated contrast media. […]
PET Scans were performed on a Siemens Biograph PET/CT scanner: A planar x-ray topogram was performed to define the field of view (FOY) with the heart centered for computed tomography (CT), CT-angiogram (CTA) and PET acquisitions. […] Each frame was reconstructed using a filtered back projection algorithm to yield a radioactivity concentration map in units of Bq/cc with 83 slices and a voxel size of 2.14×2.14×3 mm^3.
Dynamic PET data were analyzed using a Logan plot (Logan, Fowler et al. 1990) to produce parametric images of the ^18F-TPP^+ volume of distribution, Vd and reoriented into the short axis projection. […]

[5] = Time course of tracer concentration to steady state (FIG. 4, FIG. 11); assay type: in vivo, domestic swine
From the text: Applicants use a few administration methods including a constant infusion, a pulse or bolus injection or a combination of a constant infusion a pulse or bolus injection. To date, most of Applicants work has used the kinetic approach because it carries the complete information available from our measurements. By analyzing the kinetic data (concentration vs time), Applicants can infer the steady state based on the ratio of the tissue concentration to the plasma concentration. […] The addition of the pulse or bolus injection to the constant infusion can shorten the time needed to impose the steady state for TPP^+. In this case both the plasma and myocardial concentrations become constant after about 90 minutes. The two color pictures are from studies in the same pig but measured on different days, one using constant infusion and the other the kinetic protocol. Note the excellent agreement between the two methods.

[6] = Arterial and venous blood sampling of 18F-TPP+, whole blood to plasma concentration ratio; assay type: in vivo, domestic swine
Description: Pigs were fasted 12 hours prior to induction of anesthesia, sedated with 4.4 mg/kg Telazol, placed on 5% masked isoflurane, intubated, maintained with 1.5% isoflurane and mechanically ventilated. Vital signs were monitored continuously. Vascular access was obtained via the femoral veins for injection of PET radiotracer and iodinated contrast media. An arterio-venous shunt was placed in the left femoral artery for blood withdrawal.
Arterial blood sampling of ^18F-TPP^+ were drawn every 10 seconds for the first 3 minutes, then at 1 minute intervals for 5 minutes, and at increasing intervals until 120 minutes post injection. In two studies, venous several blood samples were also drawn at 5, 10, 15, 30, 60 and 90 minutes for comparison with arterial samples. All blood samples were centrifuged to determine plasma and red cell concentration histories. Concentration ratios of whole blood to plasma were computed.

## CCCCCCCCCC[P+](c1ccccc1)(c1ccccc1)c1ccccc1 [DecylTPP]
[1]
  reaching a steady state within an hour: none of MitoQ, DecylTPP, FluroUndecylTPP and TPMP reach a steady state

## COC1=C(OC)C(=O)C(CCCCCCCCCC[P+](c2ccccc2)(c2ccccc2)c2ccccc2)=C(C)C1=O [MitoQ]
[1]
  reaching a steady state within an hour: none of MitoQ, DecylTPP, FluroUndecylTPP and TPMP reach a steady state

## C[P+](c1ccccc1)(c1ccccc1)c1ccccc1 [TPMP, triphenylmethylphosphonium^+]
[1]
  reaching a steady state within an hour: none of MitoQ, DecylTPP, FluroUndecylTPP and TPMP reach a steady state

## CC(C)(C)n1ncc(OCc2ccc(COCCF)cc2)c(Cl)c1=O [^18F-Flurppiridaz]
[2]
  first pass capillary extraction E: > 0.9

## [18F]c1ccc([P+](c2ccccc2)(c2ccccc2)c2ccccc2)cc1 [^18F-TPP^+, ^18F-tetraphenylphosphonium]
[3]
  accumulation in the myocardium: accumulates slowly in the myocardium
[3]; myocardium
  extraction compared with 18F-Flurppiridaz: much lower
  kinetics compared with 18F-Flurppiridaz: much slower kinetics
[4]; areas in other vascular territories
  volume of distribution Vd: 25 mL/cc
[4]; core of the injury
  volume of distribution Vd: 2 mL/cc
[5]; in a subject
  time remaining in the steady state: at least 2 hours
[5]; in vivo tissue, FIG. 4 and FIG. 11
  time to reach a steady state in subject / tissue: within minutes; also recorded: within two hours
[5]; intravenous pulse of TPP+ followed by constant infusion, FIG. 11
  time after which plasma and myocardial concentrations become constant: about 90 minutes
[6]; constant value after injection
  concentration ratio for whole blood versus plasma: 0.95
[6]; in vivo
  time after injection at which whole blood versus plasma ratio became constant: about 10 minutes
  time the whole blood versus plasma ratio remained constant (duration of measurement): 120 min
[6]; samples obtained at least 10 minutes after injection
  agreement of venous and arterial samples: good agreement
